Here are results for three compounds from publication PMC3731299, “Isoniazid Inhibits the Heme-Based Reactivity of Mycobacterium tuberculosis Truncated Hemoglobin N” (PLoS ONE, 2013).

Read-outs that look alike come from different tables or passages of the source. Marks after values point to notes of the source that are not given here.

Series [1] concerns the target T1, Mt-trHbN(II) (Mycobacterium tuberculosis, UniProt P9WN25).
T1 construct: made in house
Kind of series: O2 binding to Mt-trHbN(II) in the absence and presence of isoniazid (tonometer method). The procedure:
The value of B was determined by the tonometer method adding small volumes of air to the Mt-trHbN(II) solution (1.3×10^−6 M), in the absence and presence of isoniazid ( = 1.0×10^−2 M; B ^obs).

Series [2] concerns the target Sperm whale Mb(II). The arrangement: method as in ref 58 = [58]; 58 Antonini E, Brunori M (1971) Hemoglobin and myoglobin in their reactions with ligands. Amsterdam, London: North Holland Publishing Co. The settings on record: read-out: B for O2 binding to sperm whale Mb(II); pH 7.0, 20.0°C; cited from earlier work.
For series [3], the system named is Sperm whale Mb(III). The settings on record: pH 7.5, 20.0°C; cited from earlier work.
For series [4], the target named is T1, Mt-trHbN(II). Briefly: Isoniazid binding to Mt-trHbN(II), stopped-flow, anaerobic.
For series [5], the target named is T1, Mt-trHbN(II). The series is classed as binding.
Series [6] addresses T2, Mt-trHbN(III) (Mycobacterium tuberculosis, UniProt P9WN25).
T2 construct: made in house
Kind of series: biochemical. The series is classed as binding.

The target of series [7] is T2, Mt-trHbN(III). The series is classed as biochemical.
Series [8] deals with T2, Mt-trHbN(III). Kind of series: biochemical. The format is binding. The source holds these as a separate data set.
Series [9] addresses KatG(III). Also on record: method as in PMID 17309235. The conditions noted are these: pH 7.2, 25.0°C, cited from earlier work.
The target of series [10] is T2, Mt-trHbN(III). Kind of series: Peroxynitrite isomerization by Mt-trHbN(III) in the absence and presence of isoniazid. The series is classed as biochemical. The procedure: Rapid-mixing experiments were performed using either the SX18.MV stopped-flow apparatus (Applied Photophysics, Salisbury, United Kingdom) or the SFM-20 stopped-flow apparatus (Bio-Logic SAS, Claix, France); the dead time was 1.0 ms.
(§1) Kinetics of peroxynitrite isomerization by Mt-trHbN(III) in the absence and presence of isoniazid was recorded spectrophotometrically at 302 nm (ε302 nm = 1.705×10^3 M^−1 cm^−1) [60]–[67] in the absence and presence of Mt-trHbN(III) (final concentration 2.5×10^−6 – 1.0×10^−5 M) and isoniazid (final concentration 3.0×10^−5 – 4.0×10^−4 M) by rapid mixing the Mt-trHbN(III) or buffer solution with the peroxynitrite solution (final concentration 2.5×10^−4 M).
Kinetics of peroxynitrite isomerization by Mt-trHbN(III) in the absence and presence of isoniazid was analyzed in the framework of the minimum reaction mechanism depicted by Scheme D [60]–[67]: [drawing 11] (D)
Values of the pseudo-first-order rate constant for Mt-trHbN(III)-mediated peroxynitrite isomerization (i.e., l ^obs) were determined in the absence and presence of isoniazid according to Equation 8 [60]–[67]: [drawing 12] (8)
Values of the second-order rate constant for Mt-trHbN(III)-mediated peroxynitrite isomerization (i.e., l on) and of the first-order rate constant for peroxynitrite isomerization in the absence of Mt-trHbN(III) (i.e., l 0) were determined from the linear dependence of l ^obs values on the Mt-trHbN(III) concentration according to Equation 9 [60]–[67]: [drawing 13] (9)
The value of K for isoniazid binding to Mt-trHbN(III) was determined from the dependence of l on the drug concentration (i.e., 3.0×10^−5 M ≤ [isoniazid] ≤4.0×10^−4 M) according to Equation 11 [60]–[67]: [drawing 15] (11) where l on ^app is the value of l on in the presence of isoniazid.

The test system of series [11] is plasma protein. Also on record: method as in ref 89 = [89]; 89 Medical Economics (2004) Drug Information for the Health Care Professional, Thomson PDR, Montvale, p. 1689. The conditions noted are these: cited from earlier work.
The nature of series [12]: Peroxynitrite isomerization in the absence of Mt-trHbN(III). The settings on record: pH 7.0, 20.0°C. The procedure:
as §1
Values of l 0 for peroxynitrite isomerization in the absence of Mt-trHbN(III) were also determined in the absence and presence of isoniazid from the analysis of the time-dependent absorbance decrease at 302 nm according to Equation 10 [60]–[67]: [drawing 14] (10)

[13] abbreviates: Mt-trHbN(III) 5.0×10^−5 M, isoniazid 1.0×10^−2 M, pH 7.0, 20.0°C.
The mark [14] stands for this setting: absence of Mt-trHbN(III), isoniazid and azide.
[15] abbreviates: no Mt-trHbN(III), isoniazid 1.0×10^−2 M, pH 7.0, 20.0°C.
Setting [16] is: isoniazid 1.0×10^−4 M, pH 7.0, 20.0°C.
The mark [17] stands for this setting: isoniazid 1.2×10^−4 M, pH 7.0, 20.0°C.
Where [18] appears, read: isoniazid 2.0×10^−4 M, pH 7.0, 20.0°C.
[19] abbreviates: isoniazid 2.4×10^−4 M, pH 7.0, 20.0°C.
Setting [20] is: isoniazid 3.0×10^−5 M, pH 7.0, 20.0°C.
[21] abbreviates: isoniazid 5.0×10^−5 M, pH 7.0, 20.0°C.
[22] abbreviates: isoniazid 6.0×10^−5 M, pH 7.0, 20.0°C.

Regarding `O=O` [O2], the Kd is 0.41 µM in series [1] ([isoniazid] = 1.0×10^−2 M, from B and D, read-out: B obs calculated according to Equation 16); 0.044 µM in series [1] (read-out: dissociation equilibrium constant B for O2 binding to Mt-trHbN(II), absence of isoniazid, pH 7.0, 20.0°C, Equation 15); 0.52 µM in [2]. Also, the “P 50 for O2 binding to Mt-trHbN(II) in the presence of isoniazid” value in [1] ([isoniazid] = 1.0×10^−2 M, corresponds to B obs) is “(2.3±0.3)×10^−1 mm Hg”. Moreover, the “P 50 for O2 binding to Mt-trHbN(II)” value in series [1] (absence of isoniazid, corresponds to B) is recorded as “(2.4±0.4)×10^−2 mm Hg”.

In the case of `O=NOO` [peroxynitrite], the “l on for peroxynitrite detoxification by sperm whale Mb(III)” value in [3] was “l on = 1.6×10^4 M^−1 s^−1 ^e”.

As to `NNC(=O)c1ccncc1` [isoniazid], in series [1] ([isoniazid] = 1.0×10^−2 M), the “mode of inhibition of O2 binding to Mt-trHbN(II)” value was “inhibits competitively”. For the same compound, the “lower affinity for the ferrous form than for the ferric form” value in series [4] (Mt-trHbN(II) versus Mt-trHbN(III)) is given as 10 fold. Besides, the Kd in [4] (average of the D values here determined) is 1200 µM; in series [6] (pH 7.0, 20.0°C, obtained at equilibrium, Equation 1, read-out: dissociation equilibrium constant K for isoniazid binding to Mt-trHbN(III)) it was 110 µM; in series [6] (pH 7.0, 20.0°C, read-out: K calculated from kinetic parameters (k off/k on)) it was 87 µM; in series [8] (Equation 7, H obs/H ratio versus [isoniazid] 1.0×10^−3 to 4.0×10^−3 M, pH 7.0, 20.0°C), 95 µM; in series [9] (obtained at equilibrium, read-out: K for isoniazid binding to KatG(III)) it was roughly 1 µM; in [9] (read-out: K calculated from kinetic parameters (k off/k on) for KatG(III)), 42 µM. Also, the Kd in [10] (Equation 11, dependence of l on [isoniazid] 3.0×10^−5 to 4.0×10^−4 M, pH 7.0, 20.0°C, read-out: K for isoniazid binding to Mt-trHbN(III) from inhibition of peroxynitrite isomerization) is 130 µM. For the same compound, the “Hill coefficient n for isoniazid binding to Mt-trHbN(II)” value in series [4] (pH 7.0, 20.0°C) is 1.01±0.01. The koff amounted to 1.5 s⁻¹ in series [4] (pH 7.0, 20.0°C, Equation 14, read-out: first-order dissociation rate constant d off) and 0.46 s⁻¹ in series [6] (pH 7.0, 20.0°C, Equation 3, read-out: first-order dissociation rate constant k off). The kon stood at 1300 M⁻¹ s⁻¹ in [4] (pH 7.0, 20.0°C, Equation 14, read-out: second-order association rate constant d on) and 5300 M⁻¹ s⁻¹ in [6] (pH 7.0, 20.0°C, Equation 3, read-out: second-order association rate constant k on). For the same compound, the “effect of isoniazid on CO binding to Mt-trHbN(II)” value in series [5] (5.0×10^−3 M isoniazid) is “grossly impairs CO binding”. In series [5] ([isoniazid] ≥1.0×10^−2 M, data not shown), the “phases of CO binding to Mt-trHbN(II)” value was “only the slow phase is observed”. Besides, the “Hill coefficient n for isoniazid binding to Mt-trHbN(III)” value in series [6] (pH 7) stood at 1.01±0.02; in [10] (from dependence of l on isoniazid concentration) it was 1.00±0.02. The “average yield of NO2 –” value in series [7] was 26% and the “average yield of NO2 –” value under setting [14] is 29%. For the same compound, the “average yield of NO3 –” value in [7] is recorded as 74% and the “average yield of NO3 –” value under setting [14] is 72%. The “NO2 –” value in series [7] (setting [13]) was 25±4%, the “NO2 –” value in series [7] (pH 7) is on record as 26±4%, the “NO2 –” value under setting [15] is on record as 31±4% and the “NO2 –” value (pH 7) is recorded as 28±4%. Further, the “NO3 –” value in [7] (setting [13]) came to 74±8%, the “NO3 –” value in [7] (pH 7) is listed as 75±8%, the “NO3 –” value under setting [15] stood at 71±6% and the “NO3 –” value (pH 7) turned out to be 72±5%. The “NO3 – + NO2 –” value in series [7] (setting [13]) was determined as 99%, the “NO3 – + NO2 –” value in [7] (pH 7) came to 101%, the “NO3 – + NO2 –” value under setting [15] worked out at 102% and the “NO3 – + NO2 –” value (pH 7) is reported as 100%. Moreover, the “mode of inhibition of azide binding to Mt-trHbN(III)” value in series [8] (1.0×10^−3 M ≤ [isoniazid] ≤4.0×10^−3 M) is “inhibits competitively”. In [9], the “k off for isoniazid binding to KatG(III)” value was “k off = 2.0×10^−2 s^−1”. Moreover, in [9], the “k on for isoniazid binding to KatG(III)” value is “k on = 4.8×10^2 M^−1 s^−1”. Besides, the “Mt-trHbN(III) catalysis of peroxynitrite isomerization” value in series [10] ([isoniazid] >10×K) is given as “does not catalyze the isomerization of peroxynitrite”. Besides, the “average l 0 value (l 0 unaffected by isoniazid)” value in series [10] (absence and presence of isoniazid, pH 7.0, 20.0°C) was 0.28 s⁻¹. In addition, the “l 0 for Mt-trHbN(III)-catalyzed peroxynitrite isomerization (y intercept)” value is “(3.1±0.3)×10^−1 s^−1” in [10] (setting [16]); “(2.6±0.3)×10^−1 s^−1” in series [10] (setting [17]); “(2.5±0.3)×10^−1 s^−1” in series [10] (setting [18]); “(3.0±0.3)×10^−1 s^−1” in series [10] (setting [19]); “(2.9±0.3)×10^−1 s^−1” in series [10] (setting [20]); “(2.5±0.3)×10^−1 s^−1” in [10] (isoniazid 4.0×10^−4 M, pH 7.0, 20.0°C). The “l 0 for Mt-trHbN(III)-catalyzed peroxynitrite isomerization (y intercept)” value in series [10] (setting [21]) is “(2.8±0.3)×10^−1 s^−1”; in series [10] (setting [22]), “(3.0±0.3)×10^−1 s^−1”. Also, the “l on app, second-order rate constant for Mt-trHbN(III)-mediated peroxynitrite isomerization” value was “(3.3±0.3)×10^4 M^−1 s^−1” in [10] (setting [16]); “(3.2±0.3)×10^4 M^−1 s^−1” in series [10] (setting [17]); “(2.7±0.3)×10^4 M^−1 s^−1” in [10] (setting [18]); “(2.4±0.3)×10^4 M^−1 s^−1” in series [10] (setting [19]); “(5.1±0.5)×10^4 M^−1 s^−1” in series [10] (setting [20]); “(4.4±0.4)×10^4 M^−1 s^−1” in series [10] (setting [21]). Moreover, the “l on app, second-order rate constant for Mt-trHbN(III)-mediated peroxynitrite isomerization” value in [10] (setting [22]) is “(4.1±0.4)×10^4 M^−1 s^−1”. Also, the plasma protein binding entry in [11] is listed as “very poor”. Moreover, the “l 0 for peroxynitrite isomerization in the absence of Mt-trHbN(III)” value in series [12] (isoniazid 1.0×10^−4 M) is on record as “(3.2±0.3)×10 ^−1 s^−1”; in series [12] (isoniazid 1.2×10^−4 M), “(2.4±0.3)×10 ^−1 s^−1”; in series [12] (isoniazid 2.0×10^−4 M) it was “(2.6±0.3) ×10 ^−1 s^−1”; in [12] (isoniazid 2.4×10^−4 M), “(2.9±0.3)×10 ^−1 s^−1”; in series [12] (isoniazid 3.0×10^−5 M), “(2.7±0.3)×10 ^−1 s^−1”; in series [12] (isoniazid 4.0×10^−4 M), “(2.6±0.3)×10 ^−1 s^−1”. Further, the results for the “l 0 for peroxynitrite isomerization in the absence of Mt-trHbN(III)” value in series [12] (isoniazid 5.0×10^−5 M) and in series [12] (isoniazid 6.0×10^−5 M) were “(3.0 ±0.3)×10 ^−1 s^−1” and “(2.6±0.3)×10 ^−1 s^−1”, respectively.
